Measured values published in patent publication US6426401B1, “Pharmaceutical composition containing an inhibitor of immunoglobulin-receptor interaction” (Tecnogen S.C.p.A., priority 1996, dated 2002).
In brackets after ≈: the same amount, converted by molar mass.

Key:
[1] = system: interaction IgE-receptor (FcεR of local mastcells); experiment: Passive cutaneous anaphylaxis assay (blueing lesions, Evan's Blue); assay type: in vivo; settings: rat; for Extension of blueing lesion (%): intradermal with ascitic fluid IgE; for inhibition of IgE-receptor interaction in vivo (in words): passive cutaneous anaphylaxis
Procedure: Rat ascit fluid containing ovalbumin antigen specific IgE and with a total immunoglobulins amount of 4 mg/ml, scaled diluted in PBS, has been injected by intradermal route in a male rat of CD specie.
Intradermal injection of 50 μl volume have been done on the shaved back of the animal.
In this way it has been allowed ascitic fluid IgE to bind FcεR of local mastcells, sensitizing them.
After 24 h, 1 mg of ovalbumin and Evan's Blue dye at 2% concentration in 1 ml of PBS have been injected by endovenous route.
After 15 minutes it has been observed the presence on the rat back derma of a colored area whose extension and color intensity are proportional to the IgE antigen-specific amount injected together with the ascitic fluid.
The blueing lesions are given by the injected antigen that bind to the IgE and determined the degranulation and the release of mediators in the site of intradermal injection. Consequently a local increase of vascular permeability and a dye leak from vessel has been observed.
For the inhibition assay, the ascitic fluid containing IgE and properly diluted has been incubated with L-PAM and D-PAM peptides in total immunoglobulins-peptides molar ratio 1:2,1:20,1:200, 1:2000, 1:20.000, and 1:200.000, […]
Separate experiments for the two peptides have been performed.
In CD1 rats, 50 μl of the fluid ascitic-peptide mixture at various concentrations have been injected intradermally.
As a positive control it has been used a 50 μl injection of ascitic fluid free of peptide.
After 24 h the antigen, together with Evans's Blue dye, has been injected as described above.
After 15 minutes it has been observed that the intensity and extension of the blueing lesions on the rat back were […] to the amounts of the injected peptide and were completely absent at highest peptide concentrations.

SRBC-IgG and U937 FcRs = assay type: cell-based, human; settings: for IC50 (inhibitor amount necessary to reduce at 50% the rosettes formation between SRBC-IgG and U937 FcRs): U937/SRBC-IgG 1:100, 30 minutes at 25° C.
Source text: The trial has been carried on L-PAM and D-PAM peptides with the assay of rosettes formation inhibition between sheep red blood cells (SRBC) derivatized with human IgG and U937 cells (prepared as described above). Rosettes formation assay has been performed in accordance with the protocol of Lund J. et al. (FASEB J., 9, 115-119, 1995) modified as follows. The derivatized SRBC have been prepared using SRBC-tanned (tannic acid pretreated SRBC, Sigma Cat. No. R-8128) and human IgG (Sigma Cat. No. I-4506) following the provider protocol. […] No. A-9418) in DPBS (Sigma, Cat. No. D-5527). […] After 30 minutes at 25° C. rosettes have been counted, and more particularly U937 having 4 or more SRBC bound on the surface. In these conditions it has been discovered that, on the average, the 45% of treated U937 gave rosettes formation. In the above described conditions, it has been performed the inhibition assay of rosettes formation by using L-PAM , D-PAM, CON-L and CON-D peptides. A further control assay has been carried on by using IgG as inhibition positive control and not derivatized SRBC as negative control.

[2] = system: interaction between human IgG and receptors Fcγ (U937 plasma-membrane); experiment: IgG-FcR binding inhibition on U937 plasma-membrane (ELISA)
Source text: For this purpose, it has been developed an inhibition assay of the binding between human immunoglobulins (Ig) IgG and IgA and their receptors on U937 human cell line plasma-membrane.
The IgG receptors FcgRI and FcgRII (Looney R. et al., J. Immunol., 136, 1641, 1986) and IgA receptors Fca (Monteiro R. C., et al., J. Exp.Med., 171, 597-613, 1990) are constitutively express by this cell line.
Microplates for ELISA determination (Falcon Cat. No. 3912) have been treated with plasma-membrane obtained from U937 cells in variable concentrations between 0.1 and 10 μg/ml (referred to the total proteins in the plasma-membrane preparation) in PBS, 100 μl/well, for 15 hours at 4° C.
After 1 hour and 30′ at room temperature, the plates have been washed 5 times with PBS-T (PBS-Tween 0.05%) and each well has been filled with 100 μl of solutions containing biotinilated Ig at variable concentrations between 0.02 and 2 μg/ml in PBS-BSA 0.5%.
After incubation of 1 h 30′ at 37° C., a solution of streptavidin derivatized with peroxidase has been added (Sigma, Cat. No. S-5512) diluted 1:1000 in PBS-BSA 0.5%, 100 μl/well. After 1 h incubation at 37° C., the plates have been washed 5 times with PBS-T and each well has been filled with 100 μl of a 2,2′-azino-bis(3-ethylbenzthiazoline-6-sulfonic acid) (Sigma, Cat. No. A-9941) in phosphate buffer pH 5 and 0.012% hydrogen peroxide.
After about 30′ the absorbance at 405 nm of each well has been determined by a plate reader (Merck, Mod. Mios) and the results are shown in TABLE 1.
The inhibition Ig/Fc assay has been carried out using U937 plasma-membrane at 10 μg/ml concentration for immobilization on plate and biotinilated Ig at 0.4 μg/ml concentration.
IgGs have been incubated with peptides of this invention (L-PAM, D-PAM and P-PAM) and two controls, namely peptides Arg-Thr-Tyr in L configuration (named CON-L) and in D configuration (named CON-D), at concentrations between 1 to 500 μg/ml (Table 2), whereas for IgA the inhibition assays have been carried out in similar conditions with L-PAM and CON-L peptides (Table 3).
B/B0 means the inhibition percentage calculated dividing the values, in terms of OD, obtained in presence of competitors, by those obtained in absence of competitors.

[3] = system: interaction between human IgA and receptors Fcα (U937 plasma-membrane); experiment: IgA/FcR binding inhibition on U937 plasma-membrane (ELISA)
Source text: For this purpose, it has been developed an inhibition assay of the binding between human immunoglobulins (Ig) IgG and IgA and their receptors on U937 human cell line plasma-membrane. The IgG receptors FcgRI and FcgRII (Looney R. et al., J. Immunol., 136, 1641, 1986) and IgA receptors Fca (Monteiro R. C., et al., J. Exp.Med., 171, 597-613, 1990) are constitutively express by this cell line. Microplates for ELISA determination (Falcon Cat. No. 3912) have been treated with plasma-membrane obtained from U937 cells in variable concentrations between 0.1 and 10 μg/ml (referred to the total proteins in the plasma-membrane preparation) in PBS, 100 μl/well, for 15 hours at 4° C. […] After incubation of 1 h 30' at 37° C., a solution of streptavidin derivatized with peroxidase has been added (Sigma, Cat. No. […] No. A-9941) in phosphate buffer pH 5 and 0.012% hydrogen peroxide. After about 30' the absorbance at 405 nm of each well has been determined by a plate reader (Merck, Mod. Mios) and the results are shown in TABLE 1. […] B/B0 has the above mentioned meaning.

[4] = inhibitor amount 0.025 micrograms (first line)
[5] = inhibitor amount 0.025 micrograms
[6] = inhibitor amount 2.5 micrograms
[7] = inhibitor amount 250 micrograms
[8] = inhibitor amount 2500 micrograms

## C[C@H](O)[C@@H](NC(=O)[C@H](N)CCCNC(=N)N)C(=O)N[C@H](Cc1ccc(O)cc1)C(=O)NCCCC[C@H](NC(=O)[C@@H](Cc1ccc(O)cc1)NC(=O)[C@H](NC(=O)[C@H](N)CCCNC(=N)N)[C@H](C)O)C(=O)NCCCC[C@H](NC(=O)[C@H](CCCCNC(=O)[C@@H](Cc1ccc(O)cc1)NC(=O)[C@H](NC(=O)[C@H](N)CCCNC(=N)N)[C@H](C)O)NC(=O)[C@@H](Cc1ccc(O)cc1)NC(=O)[C@H](NC(=O)[C@H](N)CCCNC(=N)N)[C@H](C)O)C(=O)NCC(=O)O [D-PAM, (H2N-D-Arg-D-Thr-D-Tyr-CO)4-(Lys)2-Lys-Gly-OH]
[1]; [4]
  Extension of blueing lesion (%): 60%
[1]; [5]
  Extension of blueing lesion (%): 37%
[1]; [6]
  Extension of blueing lesion (%): 33%
[1]; inhibitor amount 25 micrograms
  Extension of blueing lesion (%): 20%
[1]; [7]
  Extension of blueing lesion (%): 15%
[1]; [8]
  Extension of blueing lesion (%): 0%
[1]
  inhibition of IgE-receptor interaction in vivo (in words): able to inhibit in a dose dependent manner the interaction IgE-receptor up to a complete disappearance of the inflammatory reaction
SRBC-IgG and U937 FcRs
  inhibition of rosettes formation (in words): capable of inhibiting rosettes formation
[2]
  inhibition of IgG-FcR interaction (in words): produce, in a dose-dependent manner, the same interaction level as IgG

## C[C@@H](O)[C@H](NC(=O)[C@@H](N)CCCNC(=N)N)C(=O)N[C@@H](Cc1ccc(O)cc1)C(=O)NCCCC[C@H](NC(=O)[C@H](Cc1ccc(O)cc1)NC(=O)[C@@H](NC(=O)[C@@H](N)CCCNC(=N)N)[C@@H](C)O)C(=O)NCCCC[C@H](NC(=O)[C@H](CCCCNC(=O)[C@H](Cc1ccc(O)cc1)NC(=O)[C@@H](NC(=O)[C@@H](N)CCCNC(=N)N)[C@@H](C)O)NC(=O)[C@H](Cc1ccc(O)cc1)NC(=O)[C@@H](NC(=O)[C@@H](N)CCCNC(=N)N)[C@@H](C)O)C(=O)NCC(=O)O [L-PAM, (H2N-L-Arg-L-Thr-L-Tyr-CO)4-(Lys)2-Lys-Gly-OH]
[1]; [4]
  Extension of blueing lesion (%): 65%
[1]; [5]
  Extension of blueing lesion (%): 50%
[1]; [6]
  Extension of blueing lesion (%): 35%
[1]; inhibitor amount 25 micrograms
  Extension of blueing lesion (%): 0%
[1]; [7]
  Extension of blueing lesion (%): 0%
[1]; [8]
  Extension of blueing lesion (%): 0%
[1]
  inhibition of IgE-receptor interaction in vivo (in words): able to inhibit in a dose dependent manner the interaction IgE-receptor up to a complete disappearance of the inflammatory reaction
[3]
  inhibition of IgA-FcR interaction (in words): specifically inhibit the interaction IgA-FcR
SRBC-IgG and U937 FcRs
  inhibition of rosettes formation (in words): capable of inhibiting rosettes formation
  IC50 (inhibitor amount necessary to reduce at 50% the rosettes formation between SRBC-IgG and U937 FcRs): 78 µg/mL (≈ 36.4 µM)
[2]
  inhibition of IgG-FcR interaction (in words): produce, in a dose-dependent manner, the same interaction level as IgG

## (H2N-L-Arg(Pmc)-L-Thr(OtBu)-L-Tyr(OtBU)-CO)4-(Lys)2-Lys-Gly-OH [P-PAM]
[3]
  inhibition of IgA-FcR interaction (in words): specifically inhibit the interaction IgA-FcR
[2]
  inhibition of IgG-FcR interaction (in words): produce, in a dose-dependent manner, the same interaction level as IgG

## Arg-Thr-Tyr [CON-L, reference compound]
[3]
  inhibition of IgA-FcR interaction (in words): unable to produce the same effect
SRBC-IgG and U937 FcRs
  inhibition of rosettes formation (in words): unable to inhibit this interaction
  IC50 (inhibitor amount necessary to reduce at 50% the rosettes formation between SRBC-IgG and U937 FcRs): No Inhibition
[2]
  inhibition of IgG-FcR interaction (in words): unable to inhibit this interaction

## bovine serum albumin [BSA, reference compound]
[3]
  inhibition of IgA-FcR interaction (in words): unable to produce the same effect
[2]
  inhibition of IgG-FcR interaction (in words): unable to inhibit this interaction
